Key:
[1] = target: T1, human PDE4D5 (long isoform) (Homo sapiens, UniProt Q08499); assay: PDE assay, [3H]cAMP two-step radio-assay, PDE4D5 long isoform activation; format: biochemical; conditions: 100 μM test compound; mean % increase in counts over basal activity
T1 construct: Using Full-Length Human PDE4 Isoforms; Long Forms PDE4D5, PDE4C3, PDE4B1 and Short Form PDE4B2; made in house; cytosol fraction (100,000 g supernatant) of the cell lysate, not purified
Experimental: One suitable method of detecting whether or not a compound is capable of serving as an activator of a PDE4 long form is using a two-step radio-assay procedure described in Experiment 1. In summary, the method involves incubating a PDE4 long form with a test small molecule activator, together with [^3H]-labelled cAMP to assess alterations in the breakdown of cAMP to the 5′-adenosine monophosphate (5′-AMP) product. A sample of the reaction mixture from such an incubation is subsequently treated with snake venom 5′-nucleotidase to allow conversion of the nucleotide [^3H]-labelled 5′-AMP to the uncharged nucleoside [^3H]-labelled adenosine, which can be separated and quantified to assess PDE4 activity and the effect of the test compound (Thompson, W. J. and Appleman, M. M. Biochemistry 10: 311-316, 1971, with some modifications as described in: Marchmont, R. J. and Houslay, M. D. Biochem J. 187: 381-92, 1980). […]
The cell lysate containing recombinant PDE4D5 was transferred into a centrifuge tube and placed into an ultracentrifuge (BECKMAN COULTER) and spun at high speed (100,000 g) for 30 minutes at 4° C. The cytosol fraction was then collected and its protein amount determined using a BCA protein assay. […]

[2] = system: m-IMCD3 cells expressing PDE4 long forms; assay: cAMP levels in PGE2-stimulated 3D m-IMCD3 cell culture media; format: cell-based; conditions: Mus musculus, mIMCD3; 3 μM test compound; compared to 100% for (DMSO + PGE2); read-out: cAMP level (% of PGE2-stimulated)
Experimental: HEK 293 and MDCK cells (Public Health England, Cell Culture Collections) were maintained in Dulbecco's Modified Eagle's Medium (DMEM) supplemented with 10% (v/v) fetal bovine serum (FBS) (Seralab), 2 mM L-glutamine and 100 U/mL penicillin streptomycin cocktail (ThermoFisher); termed complete media. Clonal HEK 293 cell lines were maintained in complete media supplemented with 0.6 mg/ml G418 (Enzo Life Sciences). Mouse inner medullary collecting duct (m-IMCD3) cells [American Type Culture Collection (ATCC)] were maintained in media consisting of DMEM/Hams F-12 50/50 Mix (DMEM F12; Corning) supplemented with penicillin streptomycin cocktail (100 U/mL) and FBS (10% v/v) (DMEM F12-10% FBS).
Activation of intracellular PDE4 long forms leads to a reduction of both intracellular cAMP and externalised cAMP (Omar et al., PNAS 116: 13320-13329, 2019). This reduction may be measured in the cell culture media supernatant of 3D cystic cell cultures, such as in the m-IMCD3 cell cyst suppression assay described in Experiment 3.
Following the completion of the m-IMCD3 cell cyst suppression assay (Experiment 3), the cAMP level in the assay media from individual or pooled assay wells was measured using a cAMP ELISA kit (Enzo Life Sciences) or a LANCE Ultra cAMP kit (PerkinElmer) according to the manufacturer's instructions.

[3] = target: T2, human PDE4B2 (short isoform) (Homo sapiens, UniProt Q07343); assay: PDE assay, [3H]cAMP two-step radio-assay, PDE4B2 short isoform activation; format: biochemical; conditions: 100 μM test compound; mean % increase in counts over basal activity
T2 construct: the full length human PDE4B2 short isoform; made in house
T2 sequence (Q07343 1-564 isoform Q07343-2): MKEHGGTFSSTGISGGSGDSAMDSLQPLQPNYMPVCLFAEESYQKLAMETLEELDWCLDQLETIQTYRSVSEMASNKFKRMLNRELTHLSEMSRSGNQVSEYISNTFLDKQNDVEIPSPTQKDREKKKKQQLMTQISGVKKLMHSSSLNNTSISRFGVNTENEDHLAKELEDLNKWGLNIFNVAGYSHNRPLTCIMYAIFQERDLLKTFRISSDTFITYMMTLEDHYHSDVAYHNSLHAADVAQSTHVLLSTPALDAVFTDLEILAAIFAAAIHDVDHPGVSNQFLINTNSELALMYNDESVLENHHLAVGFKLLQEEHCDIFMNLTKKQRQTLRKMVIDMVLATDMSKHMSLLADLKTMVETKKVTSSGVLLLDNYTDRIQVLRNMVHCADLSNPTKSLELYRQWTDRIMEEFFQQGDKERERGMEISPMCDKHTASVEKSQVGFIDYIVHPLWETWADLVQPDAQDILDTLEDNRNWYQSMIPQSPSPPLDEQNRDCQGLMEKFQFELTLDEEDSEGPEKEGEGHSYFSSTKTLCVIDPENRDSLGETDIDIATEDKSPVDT

m-IMCD3 cells = assay: Inhibition of PGE2-stimulated in vitro cyst formation in m-IMCD3 cells; format: cell-based, mouse; conditions: Mus musculus, mIMCD3, 144 h, mean cyst area, 100% for (DMSO + PGE2) and 0% for DMSO control, 6 days of culture; for activity at 3 µM: read-out: % Cyst area after incubation with 3 μM test compound; for activity at 10 µM: read-out: % Cyst area after incubation with 10 μM test compound
Method in brief: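 Mean cyst area after 6 days, expressed relative to DMSO+PGE2 (100%) and DMSO alone (0%), from z-stack images. Mouse m-IMCD3 spheroids grew in collagen I/Matrigel gels and received PGE2 (100 nM final) with test compound (0.1% DMSO) starting 18–24 h post-plating, media refreshed at day 2 or 3.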

T1 sequence (Q08499 1-745 isoform Q08499-6): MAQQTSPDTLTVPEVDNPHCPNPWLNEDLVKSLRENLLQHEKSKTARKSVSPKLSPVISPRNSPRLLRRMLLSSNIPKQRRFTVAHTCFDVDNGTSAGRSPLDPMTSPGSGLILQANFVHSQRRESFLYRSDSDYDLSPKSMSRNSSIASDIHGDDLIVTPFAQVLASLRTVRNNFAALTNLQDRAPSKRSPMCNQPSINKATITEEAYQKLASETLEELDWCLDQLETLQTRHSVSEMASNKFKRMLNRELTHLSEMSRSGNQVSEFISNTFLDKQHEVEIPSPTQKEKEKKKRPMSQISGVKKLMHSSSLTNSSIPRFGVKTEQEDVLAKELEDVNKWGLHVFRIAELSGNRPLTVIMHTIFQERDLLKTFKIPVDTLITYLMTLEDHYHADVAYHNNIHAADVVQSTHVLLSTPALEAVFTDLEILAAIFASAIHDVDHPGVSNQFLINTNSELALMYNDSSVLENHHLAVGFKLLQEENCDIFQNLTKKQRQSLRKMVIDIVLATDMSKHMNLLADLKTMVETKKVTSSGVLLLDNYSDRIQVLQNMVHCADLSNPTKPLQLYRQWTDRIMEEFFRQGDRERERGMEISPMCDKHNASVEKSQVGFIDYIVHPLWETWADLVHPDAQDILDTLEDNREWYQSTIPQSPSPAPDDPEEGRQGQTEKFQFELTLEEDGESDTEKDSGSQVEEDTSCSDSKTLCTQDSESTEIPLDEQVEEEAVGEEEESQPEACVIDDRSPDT

Row | % increase in PDE4B2 (short isoform) activity at 100 μM [3] [%] | SMILES | % increase in PDE4D5 (long isoform) activity at 100 μM [1] [%] | activity at 3 µM [2] [%] | activity at 3 µM (m-IMCD3 cells) [%] | activity at 10 µM (m-IMCD3 cells) [%]
1 |  | O=S(=O)(NC1CCCC1)N1CCc2nc(N3C4CCC3CNC4)sc2C1 [Example 108, 2-(3,8-diazabicyclo[3.2.1]octan-8-yl)-N-cyclopentyl-6,7-dihydrothiazolo[5,4-c]pyridine-5(4H)-sulfonamide] | 22 | 53 |  | 
2 | −15 | O=C(CC1CCCC1)N1CCc2nc(N3CCN4CCC[C@H]4C3)sc2C1 [Example 271, (S)-2-cyclopentyl-1-(2-(hexahydropyrrolo[1,2-a]pyrazin-2(1H)-yl)-6,7-dihydrothiazolo[5,4-c]pyridin-5(4H)-yl)ethan-1-one] | 28 | 42 | 4 | 
3 |  | CCN1CC2CCC(C1)N2c1nc2c(s1)CN(C(=O)N[C@H]1CCOc3ccccc31)CC2 [Example 294, N—((S)-chroman-4-yl)-2-(3-ethyl-3,8-diazabicyclo[3.2.1]octan-8-yl)-6,7-dihydrothiazolo[5,4-c]pyridine-5(4H)-carboxamide] |  | 39 | -5 | 
4 |  | CC1(CC(=O)N2CCn3nc(N4C5CCC4CNC5)cc3C2)CCCC1 [Example 128, 1-(2-(3,8-diazabicyclo[3.2.1]octan-8-yl)-6,7-dihydropyrazolo[1,5-a]pyrazin-5(4H)-yl)-2-(1-methylcyclopentyl)ethan-1-one] |  | 50 |  | -2
5 |  | O=C(OC1CCCC1)N1CCc2nc(N3C4CCC3CNC4)sc2C1 [Example 244, cyclopentyl 2-(3,8-diazabicyclo[3.2.1]octan-8-yl)-6,7-dihydrothiazolo[5,4-c]pyridine-5(4H)-carboxylate] |  | 40 | 6 | 
6 |  | O=C(CC1CCCC1)N1CCc2sc(N3C4CCC3CNC4)nc2C1 [Example 281, 1-(2-(3,8-diazabicyclo[3.2.1]octan-8-yl)-6,7-dihydrothiazolo[4,5-c]pyridin-5(4H)-yl)-2-cyclopentylethan-1-one] |  | 51 | -9 | 
7 |  | CCN1CCN(c2nc3c(s2)CN(C(=O)N[C@H]2CCOc4ccccc42)CC3)CC1 [Example 297, (S)—N-(chroman-4-yl)-2-(4-ethylpiperazin-1-yl)-6,7-dihydrothiazolo[5,4-c]pyridine-5(4H)-carboxamide] |  | 45 | 9 | 
8 |  | O=C(CC1CCCC1)N1Cc2nc(N3C4CCC3CNC4)sc2C1 [Example 66, 1-(2-(3,8-diazabicyclo[3.2.1]octan-8-yl)-4,6-dihydro-5H-pyrrolo[3,4-d]thiazol-5-yl)-2-cyclopentylethan-1-one] |  | 36 |  | -5
9 |  | O=C(CC1CCCC1)N1CCn2nc(N3C4CCC3CNC4)cc2C1 [Example 127, 1-(2-(3,8-diazabicyclo[3.2.1]octan-8-yl)-6,7-dihydropyrazolo[1,5-a]pyrazin-5(4H)-yl)-2-cyclopentylethan-1-one] |  | 42 |  | 3
10 |  | O=C(CC1CCCC1)N1CCc2nc(N3C[C@@H]4C[C@H]3CN4)sc2C1 [Example 277, 1-(2-((1S,4S)-2,5-diazabicyclo[2.2.1]heptan-2-yl)-6,7-dihydrothiazolo[5,4-c]pyridin-5(4H)-yl)-2-cyclopentylethan-1-one] |  | 42 | 6 | 
11 |  | CC(C)N1CC2CCC(C1)N2c1nc2c(s1)CN(C(=O)COc1ccc(F)cc1)CC2 [Example 298, 2-(4-fluorophenoxy)-1-(2-(3-isopropyl-3,8-diazabicyclo[3.2.1]octan-8-yl)-6,7-dihydrothiazolo[5,4-c]pyridin-5(4H)-yl)ethan-1-one] |  | 48 | -7 | 

— patent US20250388604A1, “Compounds and Their Use as PDE4 Activators” (Mironid Limited, priority 2022, published 2025)
